Assay results reported in PMC4156305, “Structure Driven Design of Novel Human Ether-A-Go-Go-Related-Gene Channel (hERG1) Activators” (PLoS ONE, 2014).

Molecular target: T1, hERG1 (Homo sapiens, UniProt Q12809)
T1 construct: expressed in transfected cells; host or cells: HEK 293
Assay: Whole cell patch-clamp of hERG1 currents in transfected HEK 293 cells
Assay type: cell-based
Parameters: Inactivation ΔV0.3: unit not given here
Conditions: for Deactivation Δλ/λcon: deactivation time constant relative to baseline; for Activation V1/2 (mV): shift in voltage-dependence of activation; for Inactivation ΔV0.3: shift in voltage-dependence of inactivation; for Amplitude I/Icon: tail current relative to baseline
Description: Transfected HEK cells on glass cover slips were placed in a chamber mounted on a modified stage of an inverted microscope. The chamber was superfused at a rate of 2 mL/min with a normal external solution. The extracellular solution contained (in mM) NaCl 140, KCl 5.4, CaCl2 1, MgCl2 1, HEPES 5, glucose 5.5, pH 7.4, with NaOH. Micropipettes were pulled from borosilicate glass capillary tubes on a programmable horizontal puller (Sutter Instruments, Novato, CA). Standard patch-clamp methods were used to measure the whole cell currents of hERG1 mutants expressed in HEK 293 cells using the AXOPATCH 200B amplifier (Axon Instruments). Unless otherwise indicated, tail currents were recorded when the voltage was returned to −50 mV from +50 mV. Further details on electrophysiological methods are collected in Methods S1.
Electrophysiology Protocol:
The pipette solution contained the following (at mM concentration): KCl 10, K-aspartate 110, MgCl2 5, Na2ATP 5, EGTA 10, HEPES 5, and CaCl2 1. The solution was adjusted to pH 7.2 with KOH. The extracellular solution contained the following (at mM concentration): NaCl 140, KCl 5.4, CaCl2 1, MgCl2 1, HEPES 5, and glucose 5.5. The solution was adjusted to pH 7.4 with NaOH. For IKr measurements, the whole cell configuration of the patch clamp method was used. The series resistance was less than 7
MΩ. The data were sampled at 1 kHz. The holding potential was -80 mV. The activation of hERG tail currents was induced by depolarization to a range of potentials from +50 to -100 mV in 10 mV steps for 1 second. This was followed by repolarization to -100 mV for 1 second to record the tail currents.
-100 mV, a -120 mV 1 second pre-pulse was applied to completely close the hERG channels before subsequent depolarization. All of the tail currents reported in this manuscript represent dofetilide-sensitive currents. The inactivation of hERG was measured by a previously reported triple-pulse protocol5, 6. The holding potential was -80 mV. The hERG channel was first depolarized to +50 mV for 1 second. Recovery from inactivation was achieved using a short pulse (a 10 ms hyperpolarization) to -120 mV, followed by the application of test pulses from -100 to 0 mV for 1 second in 10 mV steps.
A voltage of -100 mV was selected because it was on the flat part of the inactivation-voltage relationship. The methods employed are identical to ones previously reported. […]

[1] = Conc. 50 µM, listed as MC-I-159b
[2] = Conc. 10 µM, listed as MC-I-153b
[3] = Conc. 50 µM, listed as MC-I-153b

T1 sequence (Q12809 whole entry): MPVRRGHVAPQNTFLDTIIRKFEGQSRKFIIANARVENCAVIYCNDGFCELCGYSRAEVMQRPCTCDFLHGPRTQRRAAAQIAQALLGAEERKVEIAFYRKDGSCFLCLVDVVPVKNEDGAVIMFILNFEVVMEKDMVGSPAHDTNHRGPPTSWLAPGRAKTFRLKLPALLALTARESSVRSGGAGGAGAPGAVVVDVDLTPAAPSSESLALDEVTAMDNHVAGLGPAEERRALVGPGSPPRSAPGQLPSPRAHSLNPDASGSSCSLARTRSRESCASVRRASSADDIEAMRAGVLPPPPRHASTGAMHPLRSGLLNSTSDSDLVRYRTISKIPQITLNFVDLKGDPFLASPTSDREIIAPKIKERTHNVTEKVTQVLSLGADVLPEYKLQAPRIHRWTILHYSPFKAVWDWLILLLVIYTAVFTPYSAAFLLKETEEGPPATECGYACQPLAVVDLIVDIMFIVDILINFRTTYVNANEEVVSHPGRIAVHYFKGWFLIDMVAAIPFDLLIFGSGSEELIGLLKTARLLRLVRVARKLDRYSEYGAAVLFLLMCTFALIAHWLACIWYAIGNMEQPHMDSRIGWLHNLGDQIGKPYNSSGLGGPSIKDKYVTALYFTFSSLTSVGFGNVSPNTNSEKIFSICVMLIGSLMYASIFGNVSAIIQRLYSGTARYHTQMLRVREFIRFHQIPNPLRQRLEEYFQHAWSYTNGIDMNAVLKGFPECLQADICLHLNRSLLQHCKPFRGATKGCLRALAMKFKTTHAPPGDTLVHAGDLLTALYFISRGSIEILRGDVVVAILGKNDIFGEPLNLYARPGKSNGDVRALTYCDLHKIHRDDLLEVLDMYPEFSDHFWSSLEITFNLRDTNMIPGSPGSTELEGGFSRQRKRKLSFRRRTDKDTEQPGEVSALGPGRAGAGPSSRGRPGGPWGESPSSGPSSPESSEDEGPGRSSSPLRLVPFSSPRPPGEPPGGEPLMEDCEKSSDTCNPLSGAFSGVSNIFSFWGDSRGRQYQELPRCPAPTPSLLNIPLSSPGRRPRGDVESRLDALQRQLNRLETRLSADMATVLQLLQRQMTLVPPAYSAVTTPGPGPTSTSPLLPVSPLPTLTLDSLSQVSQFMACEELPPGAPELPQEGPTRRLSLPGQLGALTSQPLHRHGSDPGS

SMILES: C[C@H](NC(=O)c1ccc([N+](=O)[O-])cc1)C(=O)NC(=O)Nc1cc(C(F)(F)F)ccc1O [Compound 7]
- Deactivation Δλ/λcon (Conc. 20 µM): 0.6±0.3
- Activation V1/2 (mV) (Conc. 20 µM): −7±1.1 mV
- Inactivation ΔV0.3 (Conc. 20 µM): −3.5±4.5
- Amplitude I/Icon (Conc. 20 µM): 0.6±0.1

SMILES: COCOc1ccc(C(F)(F)F)cc1NC(N)=O [Compound 21]
- Deactivation Δλ/λcon (Conc. 50 µM): 0.02±0.1
- Activation V1/2 (mV) (Conc. 50 µM): −1.3±2.4 mV
- Inactivation ΔV0.3 (Conc. 50 µM): 0.7±3.7
- Amplitude I/Icon (Conc. 50 µM): 0.9±0.04

SMILES: C[C@H](NCc1ccccc1)C(=O)NC(=O)Nc1cc(C(F)(F)F)ccc1O [Compound 2]
- Deactivation Δλ/λcon (Conc. 20 µM): 0.6±0.4
- Activation V1/2 (mV) (Conc. 20 µM): −14.5±5.5 mV
- Inactivation ΔV0.3 (Conc. 20 µM): −21±0.0
- Amplitude I/Icon (Conc. 20 µM): 0.4±0.02

SMILES: C[C@H](NS(=O)(=O)c1ccc(N)cc1)C(=O)NC(=O)Nc1cc(C(F)(F)F)ccc1O [Compound 13]
- pharmacologic activity (1 µM): no pharmacologic activity
- Activation V1/2 (mV) (Conc. 2 µM): −2±3 mV
- Amplitude I/Icon (Conc. 2 µM): 1.0
- Deactivation Δλ/λcon (Conc. 20 µM): 0.3±0.1
- Activation V1/2 (mV) (Conc. 20 µM): −5±3 mV
- Inactivation ΔV0.3 (Conc. 20 µM): +8±0.4
- Inactivation ΔV0.3 (Conc. 20 µM, listed as MC-I-159b): significantly shifted voltage-dependence of inactivation to depolarized potentials
- Amplitude I/Icon (Conc. 20 µM): 1.0
- Deactivation Δλ/λcon (Conc. 50 µM): 0.5±0.1
- Activation V1/2 (mV) (Conc. 50 µM): −2.5±3.0 mV
- Inactivation ΔV0.3 (Conc. 50 µM): +10±0.6
- Inactivation ΔV0.3 [1]: shifted the voltage-dependence of inactivation to depolarized potentials
- Amplitude I/Icon (Conc. 50 µM): 1±0.03
- Amplitude I/Icon [1]: did not produce pharmacological block

SMILES: C[C@H](NC(=O)c1ccccc1)C(=O)NC(=O)Nc1cc(C(F)(F)F)ccc1O [Compound 6]
- Deactivation Δλ/λcon (Conc. 20 µM): 0.8±0.1
- Activation V1/2 (mV) (Conc. 20 µM): −3.7±0.7 mV
- Inactivation ΔV0.3 (Conc. 20 µM): −2.5±1.5
- Amplitude I/Icon (Conc. 20 µM): 0.7±0.02

SMILES: COCOc1ccc(C(F)(F)F)cc1NC(=O)NC(=O)[C@H](C)NCc1ccc(F)cc1 [Compound 8]
- Deactivation Δλ/λcon (Conc. 20 µM): −0.1±0.04
- Activation V1/2 (mV) (Conc. 20 µM): −12.5±2.5 mV
- Inactivation ΔV0.3 (Conc. 20 µM): −4±8
- Amplitude I/Icon (Conc. 20 µM): 0.1±0.0

SMILES: CN(C(=O)c1cccc(C(F)(F)F)c1)c1ccccc1 [Compound 18]
- Deactivation Δλ/λcon (Conc. 50 µM): −0.2±0.05
- Activation V1/2 (mV) (Conc. 50 µM): 3.3±0.3 mV
- Inactivation ΔV0.3 (Conc. 50 µM): −11.7±7.3
- Amplitude I/Icon (Conc. 50 µM): 0.8±0.07

SMILES: COCOc1ccc(C(F)(F)F)cc1NC(=O)NC(=O)[C@H](C)NC(=O)c1ccc([N+](=O)[O-])cc1 [Compound 12]
- Deactivation Δλ/λcon (Conc. 20 µM): −0.1±0.1
- Activation V1/2 (mV) (Conc. 20 µM): −6.3±2.7 mV
- Inactivation ΔV0.3 (Conc. 20 µM): −7.3±1.9
- Amplitude I/Icon (Conc. 20 µM): 0.6±0.19

SMILES: O=C(Nc1ccccc1)C1C(=O)Nc2ccccc21 (stereo not drawn) [Compound 24]
- Deactivation Δλ/λcon (Conc. 50 µM): 0.2±0.2
- Activation V1/2 (mV) (Conc. 50 µM): −2.3±0.9 mV
- Inactivation ΔV0.3 (Conc. 50 µM): 8±0
- Amplitude I/Icon (Conc. 50 µM): 0.8±0.03

SMILES: COCOc1ccc(C(F)(F)F)cc1NC(=O)NC(=O)[C@H](C)NCc1ccc(Br)cc1 [Compound 9]
- Deactivation Δλ/λcon (Conc. 20 µM): −0.1±0.1
- Activation V1/2 (mV) (Conc. 20 µM): −9.1±2.1 mV
- Inactivation ΔV0.3 (Conc. 20 µM): −3.5±1.5
- Amplitude I/Icon (Conc. 20 µM): 0.5±0.1

SMILES: C[C@H](NCc1ccc(F)cc1)C(=O)NC(=O)Nc1cc(C(F)(F)F)ccc1O [Compound 3]
- Deactivation Δλ/λcon (Conc. 2 µM): 1.7±0.3
- Activation V1/2 (mV) (Conc. 2 µM): −17.3±0.3 mV
- Inactivation ΔV0.3 (Conc. 2 µM): −7.5±4.5
- Deactivation Δλ/λcon (Conc. 20 µM): 1.7±0.3
- Activation V1/2 (mV) (Conc. 20 µM): −17.3±0.3 mV
- Inactivation ΔV0.3 (Conc. 20 µM): −7.5±4.5
- Amplitude I/Icon (Conc. 20 µM): 0.6±0.14

SMILES: COCOc1ccc(C(F)(F)F)cc1NC(=O)Oc1ccccc1 [Compound 22]
- Deactivation Δλ/λcon (Conc. 50 µM): −0.2±0.09
- Activation V1/2 (mV) (Conc. 50 µM): −1.7±2.3 mV
- Inactivation ΔV0.3 (Conc. 50 µM): 0±0
- Amplitude I/Icon (Conc. 50 µM): 0.9±0.04

SMILES: COCOc1ccc(C(F)(F)F)cc1NC(=O)NC(=O)[C@H](C)NS(=O)(=O)c1ccc([N+](=O)[O-])cc1 [Compound 15]
- Deactivation Δλ/λcon (Conc. 10 µM): −0.1±0.1
- Activation V1/2 (mV) (Conc. 10 µM): −3±3 mV
- Inactivation ΔV0.3 (Conc. 10 µM): −11±2
- Amplitude I/Icon (Conc. 10 µM): 0.7±0.12
- Deactivation Δλ/λcon (Conc. 30 µM): −0.01±0.07
- Activation V1/2 (mV) (Conc. 30 µM): 0±0 mV
- Inactivation ΔV0.3 (Conc. 30 µM): −10±0
- Amplitude I/Icon (Conc. 30 µM): 0.5±0.04

SMILES: COCOc1ccc(C(F)(F)F)cc1NC(=O)NC(=O)[C@H](C)NC(=O)c1ccccc1 [Compound 11]
- Deactivation Δλ/λcon (Conc. 20 µM): −0.1±0.2
- Activation V1/2 (mV) (Conc. 20 µM): −12.7±2.7 mV
- Inactivation ΔV0.3 (Conc. 20 µM): −1.5±1.5
- Amplitude I/Icon (Conc. 20 µM): 0.6±0.04

SMILES: COCOc1ccc(C(F)(F)F)cc1NC(=O)NC(=O)[C@H](C)N(Cc1ccccc1)Cc1ccccc1 [Compound 17]
- Deactivation Δλ/λcon (Conc. 10 µM): 0.07±0.08
- Activation V1/2 (mV) (Conc. 10 µM): −5±0.6 mV
- Inactivation ΔV0.3 (Conc. 10 µM): −1±0.6
- Deactivation Δλ/λcon (Conc. 50 µM): 0.25±0.18
- Activation V1/2 (mV) (Conc. 50 µM): −2±0 mV
- Inactivation ΔV0.3 (Conc. 50 µM): +4±0
- Amplitude I/Icon (Conc. 50 µM): 0.95±0.03

SMILES: C[C@H](NS(=O)(=O)c1ccc([N+](=O)[O-])cc1)C(=O)NC(=O)Nc1cc(C(F)(F)F)ccc1O [Compound 14]
- Deactivation Δλ/λcon (Conc. 2 µM): 0.4±
- Activation V1/2 (mV) (Conc. 2 µM): −3±0.02 mV
- Amplitude I/Icon (Conc. 2 µM): 0.93±0.01
- Deactivation Δλ/λcon (Conc. 50 µM): 0.6±0.3
- Activation V1/2 (mV) (Conc. 50 µM): −7.7±3.0 mV
- Inactivation ΔV0.3 (Conc. 50 µM): 2.5±3.5
- Amplitude I/Icon (Conc. 50 µM): 0.39±0.04
- Amplitude I/Icon (Conc. 50 µM, listed as MC-I-169b): significantly more pharmacologic block

SMILES: COCOc1ccc(C(F)(F)F)cc1N [Compound 20]
- Deactivation Δλ/λcon (Conc. 5 µM): 0.03±0.01
- Activation V1/2 (mV) (Conc. 5 µM): −2.5±0.5 mV
- Inactivation ΔV0.3 (Conc. 5 µM): 0±1
- Deactivation Δλ/λcon (Conc. 100 µM): −0.06±0.2
- Activation V1/2 (mV) (Conc. 100 µM): −3.3±1.3 mV
- Inactivation ΔV0.3 (Conc. 100 µM): −1±0
- Amplitude I/Icon (Conc. 100 µM): 0.9±0.04

SMILES: COCOc1ccc(C(F)(F)F)cc1NC(=O)NC(=O)[C@H](C)NCc1ccc(C(F)(F)F)cc1 [Compound 10]
- Deactivation Δλ/λcon (Conc. 20 µM): 0.5±0.03
- Activation V1/2 (mV) (Conc. 20 µM): −13.7±3.2 mV
- Inactivation ΔV0.3 (Conc. 20 µM): −12.3±3.4
- Amplitude I/Icon (Conc. 20 µM): 0.4±0.02

SMILES: O=C1NC(=O)c2cc(C(F)(F)F)ccc21 [Compound 23]
- Deactivation Δλ/λcon (Conc. 50 µM): 0.2±0.1
- Activation V1/2 (mV) (Conc. 50 µM): −2.3±1.3 mV
- Inactivation ΔV0.3 (Conc. 50 µM): −2±1.2
- Amplitude I/Icon (Conc. 50 µM): 1.0±0.01

SMILES: CN(C(=O)c1cc(C(F)(F)F)ccc1Cl)c1ccccc1 [Compound 19]
- Activation V1/2 (mV) (Conc. 5 µM): 0 mV
- Amplitude I/Icon (Conc. 5 µM): 0.9±0.1
- Deactivation Δλ/λcon (Conc. 50 µM): −0.2±0.08
- Activation V1/2 (mV) (Conc. 50 µM): 1±3 mV
- Inactivation ΔV0.3 (Conc. 50 µM): −2±1
- Amplitude I/Icon (Conc. 50 µM): 0.7±0.06

SMILES: COCOc1ccc(C(F)(F)F)cc1NC(=O)NC(=O)[C@H](C)N [Compound 16]
- Deactivation Δλ/λcon (Conc. 10 µM): −0.07±0.1
- Activation V1/2 (mV) (Conc. 10 µM): −7±2 mV
- Activation V1/2 (mV) [2]: shifts V1/2 of activation to hyperpolarized potentials
- Amplitude I/Icon (Conc. 10 µM): 0.6±0.06
- Amplitude I/Icon [2]: 0.6
- Deactivation Δλ/λcon (Conc. 50 µM): 0.003±0.14
- Activation V1/2 (mV) (Conc. 50 µM): −19±3 mV
- Activation V1/2 (mV) [3]: left shifted the V1/2 of activation
- Inactivation ΔV0.3 (Conc. 50 µM): −27±2
- Amplitude I/Icon (Conc. 50 µM): 0.3±0.02
- Amplitude I/Icon [3]: 0.3
